# Laboratory results reported in ChEMBL document CHEMBL6182944, “Substrate Specificity of the Organic Cation Transporters MATE1 and MATE2K and Functional Overlap with OCT1 and OCT2” (J Med Chem, 2025).
# Tests used:
# MATE2-K = target: T1, MATE2-K (Homo sapiens, UniProt Q86VL8); assay: in vitro
# T1 sequence (Q86VL8 whole entry): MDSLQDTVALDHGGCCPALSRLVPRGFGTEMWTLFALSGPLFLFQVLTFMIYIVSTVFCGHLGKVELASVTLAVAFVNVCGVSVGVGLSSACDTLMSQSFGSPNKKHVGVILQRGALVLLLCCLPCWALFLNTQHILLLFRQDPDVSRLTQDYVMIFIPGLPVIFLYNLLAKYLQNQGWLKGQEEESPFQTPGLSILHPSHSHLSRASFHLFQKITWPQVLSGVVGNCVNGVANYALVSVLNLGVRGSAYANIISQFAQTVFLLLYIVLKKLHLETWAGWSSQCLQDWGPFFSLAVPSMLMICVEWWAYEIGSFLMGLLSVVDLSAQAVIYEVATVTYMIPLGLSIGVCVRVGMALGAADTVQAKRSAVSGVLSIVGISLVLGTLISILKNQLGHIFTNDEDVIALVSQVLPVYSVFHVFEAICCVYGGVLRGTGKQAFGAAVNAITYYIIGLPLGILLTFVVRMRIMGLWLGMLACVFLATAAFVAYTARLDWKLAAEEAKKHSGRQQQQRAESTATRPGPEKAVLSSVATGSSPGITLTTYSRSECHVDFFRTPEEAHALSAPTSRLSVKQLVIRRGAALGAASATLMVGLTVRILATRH
# MATE1 = target: T2, MATE1 (Homo sapiens, UniProt Q96FL8); assay: in vitro
# T2 sequence (Q96FL8 whole entry): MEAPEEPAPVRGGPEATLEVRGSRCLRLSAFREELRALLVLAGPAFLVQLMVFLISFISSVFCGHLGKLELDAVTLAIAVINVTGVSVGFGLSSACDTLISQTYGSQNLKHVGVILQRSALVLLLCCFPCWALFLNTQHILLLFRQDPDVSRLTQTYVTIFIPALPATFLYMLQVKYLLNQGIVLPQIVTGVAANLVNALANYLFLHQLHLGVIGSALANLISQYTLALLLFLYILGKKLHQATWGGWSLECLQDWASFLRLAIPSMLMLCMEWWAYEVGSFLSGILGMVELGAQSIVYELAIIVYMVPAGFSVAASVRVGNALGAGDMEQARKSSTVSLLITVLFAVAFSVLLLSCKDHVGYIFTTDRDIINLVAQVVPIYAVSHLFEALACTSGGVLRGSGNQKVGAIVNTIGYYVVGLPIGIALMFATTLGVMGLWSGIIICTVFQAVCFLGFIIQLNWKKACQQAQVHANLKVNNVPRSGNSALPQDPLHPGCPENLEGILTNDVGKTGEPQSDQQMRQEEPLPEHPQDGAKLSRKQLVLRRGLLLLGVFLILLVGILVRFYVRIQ
# [1] = HEK293 cells expressing MATE2-K
Structure (SMILES),"uptake ratio at 1 min, 2.5 µM (MATE2-K; [1])","uptake ratio at 1 min, 2.5 µM (MATE1; HEK293 cells expressing MATE1)","uptake ratio at 1 min, 2.5 µM (MATE2-K; hek293)","uptake ratio at 1 min, 2.5 µM (MATE1; hek293)"
COc1cccc2c1C(=O)c1c(O)c3c(c(O)c1C2=O)C[C@@](O)(C(C)=O)C[C@@H]3O[C@H]1C[C@H](N)[C@H](O)[C@H](C)O1 [DAUNORUBICIN],< 2,< 2,,
Nc1ncn([C@H]2C[C@H](O)[C@@H](CO)O2)c(=O)n1 [DECITABINE],< 2,< 2,,
COc1cc2c(cc1OC)-c1c(C)c3ccc(OC)c(OC)c3c[n+]1CC2 [DEHYDROCORYDALINE],> 2,> 2,,
CNCCc1ccc(O)c(O)c1 [DEOXIEPINEPHRINE],> 2,> 2,,
CC(C)N(CCC(C(N)=O)(c1ccccc1)c1ccccn1)C(C)C (stereo not drawn) [DISOPYRAMIDE],< 2,< 2,,
CC[N+](C)(C)c1cccc(O)c1 [EDROPHONIUM],> 2,> 2,,
COC(=O)CCc1ccc(OCC(O)CNC(C)C)cc1 (stereo not drawn) [ESMOLOL],< 2,< 2,,
CCNCC(O)c1cccc(O)c1 (stereo not drawn) [ETILEFRINE],> 2,> 2,,
O=S(=O)(c1cccc2cnccc12)N1CCCNCC1 [FASUDIL],> 2,< 2,,
CC(C)(C(=O)O)c1ccc(C(O)CCCN2CCC(C(O)(c3ccccc3)c3ccccc3)CC2)cc1 (stereo not drawn) [FEXOFENADINE],< 2,< 2,,
OCCN1CCN(CCCN2c3ccccc3Sc3ccc(C(F)(F)F)cc32)CC1 [FLUPHENAZINE],< 2,< 2,,
NCCCC(=O)O [GAMMA-AMINOBUTYRIC ACID],< 2,< 2,,
Nc1ccn([C@@H]2O[C@H](CO)[C@@H](O)C2(F)F)c(=O)n1 [GEMCITABINE],< 2,< 2,,
Oc1ccc(CC2NCCc3cc(O)c(O)cc32)cc1 (stereo not drawn) [HIGENAMINE],> 2,> 2,,
NCCc1c[nH]cn1 [HISTAMINE],,,< 2,> 2
CCCCCCCN(CC)CCCC(O)c1ccc(NS(C)(=O)=O)cc1 (stereo not drawn) [IBUTILIDE],< 2,< 2,,
N=C(N)NCc1cccc(I)c1 [IOBENGUANE],> 2,> 2,,
CCC(NC(C)C)C(O)c1ccc(O)c(O)c1 (stereo not drawn) [ISOETHARINE],> 2,> 2,,
CC(C)NCC(O)c1ccc(O)c(O)c1 (stereo not drawn) [ISOPROTERENOL],> 2,> 2,,
O=C(C[S+]([O-])Cc1ccco1)NC/C=C\COc1cc(CN2CCCCC2)ccn1 (stereo not drawn) [LAFUTIDINE],< 2,< 2,,
C[N+](C)(C)C[C@H](O)CC(=O)[O-] [LEVOCARNITINE],< 2,< 2,,
C[N+]1(C)CCCC(OC(=O)C(O)(c2ccccc2)c2ccccc2)C1 (stereo not drawn) [MEPENZOLATE BROMIDE],> 2,> 2,,
CC(C)NCC(O)c1cc(O)cc(O)c1 (stereo not drawn) [METAPROTERENOL],> 2,> 2,,
Clc1ccc(COC(Cn2ccnc2)c2ccc(Cl)cc2Cl)c(Cl)c1 (stereo not drawn) [MICONAZOLE],< 2,< 2,,
CNC(C)Cc1ccc2c(c1)OCO2 (stereo not drawn) [MIDOMAFETAMINE],< 2,< 2,,

Structure (SMILES),"uptake ratio at 1 min, 2.5 µM (MATE2-K; [1])","uptake ratio at 1 min, 2.5 µM (MATE1; HEK293 cells expressing MATE1)","uptake ratio at 1 min, 2.5 µM (MATE2-K; hek293)","uptake ratio at 1 min, 2.5 µM (MATE1; hek293)"
Nc1nc(CC(=O)Nc2ccc(CCNC[C@H](O)c3ccccc3)cc2)cs1 [MIRABEGRON],> 2,> 2,,
Cc1ncc(C[n+]2csc(CCOP(=O)(O)O)c2C)c(N)n1 [MONOPHOSPHOTHIAMINE],< 2,< 2,,
CC(C)(C)NCC(O)COc1cccc2c1CC(O)C(O)C2 (stereo not drawn) [NADOLOL],> 2,> 2,,
OC(CNCC(O)C1CCc2cc(F)ccc2O1)C1CCc2cc(F)ccc2O1 (stereo not drawn) [NEBIVOLOL],< 2,< 2,,
O=C(O)c1cccnc1 [NIACIN],,,< 2,< 2
CNC(=O)c1cccnc1 [NICOTINYL METHYLAMIDE],> 2,> 2,,
CNC(=C[N+](=O)[O-])NCCSCc1csc(CN(C)C)n1 [NIZATIDINE],> 2,> 2,,
NCC(O)c1cccc(O)c1 (stereo not drawn) [NORFENEFRINE],< 2,> 2,,
COc1cc(C(O)CN)ccc1O (stereo not drawn) [NORMETANEPHRINE],< 2,< 2,,
NCC(O)c1ccc(O)cc1 (stereo not drawn) [OCTOPAMINE],< 2,> 2,,
CC[N+](C)(CC)CCOC(=O)C(O)(c1ccccc1)C1CCCCC1 (stereo not drawn) [OXYPHENONIUM],> 2,> 2,,
CC(C)(CO)[C@@H](O)C(=O)NCCC(=O)O [PANTOTHENIC ACID],< 2,< 2,,
NCCc1ccccc1 [PHENETHYLAMINE],< 2,< 2,,
CCC1(c2ccccc2)C(=O)NC(=O)NC1=O [PHENOBARBITAL],< 2,< 2,,
CC[C@@H]1C(=O)OC[C@@H]1Cc1cncn1C [PILOCARPINE],< 2,< 2,,
CC(C)NCC(O)COc1cccc2[nH]ccc12 (stereo not drawn) [PINDOLOL],< 2,> 2,,
NC(=O)C1(N2CCCCC2)CCN(CCCC(=O)c2ccc(F)cc2)CC1 [PIPAMPERONE],< 2,< 2,,
CN1CCN(CC(=O)N2c3ccccc3C(=O)Nc3cccnc32)CC1 [PIRENZEPINE],< 2,> 2,,
CC(=O)Nc1ccc(OCC(O)CNC(C)C)cc1 (stereo not drawn) [PRACTOLOL],,,> 2,> 2
[H]/N=C(\N/C(=N/[H])Nc1ccc(Cl)cc1)NC(C)C [PROGUANIL],> 2,> 2,,
CC(C)[N+](C)(CCOC(=O)C1c2ccccc2Oc2ccccc21)C(C)C [PROPANTHELINE],> 2,> 2,,
NCCCCN [PUTRESCINE],,,< 2,< 2
CNC(=C[N+](=O)[O-])NCCSCc1ccc(CN(C)C)o1 [RANITIDINE],,,> 2,> 2
CN(C)CCc1c[nH]c2ccc(Cn3cncn3)cc12 [RIZATRIPTAN],> 2,> 2,,
